Data as given in patent publication US20240083885A1, “COMPOSITIONS AND METHODS FOR INHIBITING M PRO PROTEASE ACTIVITY AND FOR PREVENTING AND TREATING SARS-COV-2 INFECTION” (priority 2020, published 2024).
Several values for one entry are separate records, joined by “and”; a condition that tells them apart may be missing. Identical values can stand only once. Like-named read-outs stand apart in the source and are kept apart here.

What was measured:
SARS-CoV-2 M^pro [1] = target: T1, SARS-CoV-2 M^pro (Severe acute respiratory syndrome coronavirus 2 (2019-nCoV) (SARS-CoV-2), UniProt P0DTD1); experiment: biochemical
SARS-CoV-2 [2] = experiment: microbe, parasite or virus in culture; type: cell-based; conditions: Severe acute respiratory syndrome coronavirus 2, Vero C1008; read-out: antiviral EC50 against SARS-CoV-2 in Vero E6 cells
SARS-CoV-2 M^pro [3] = target: T1, SARS-CoV-2 M^pro; experiment: biochemical; remark: listed apart in the source
SARS-CoV-2 M^pro [4] = target: T1, SARS-CoV-2 M^pro; experiment: cell-based
SARS-CoV-2 [5] = experiment: microbe, parasite or virus in culture; type: cell-based; conditions: Severe acute respiratory syndrome coronavirus 2; read-out: antiviral EC50 against SARS-CoV-2 in Caco2-hACE2 cells
in vitro [6] = conditions: African green monkey, CC50 in Vero E6 cells
in vitro [7] = conditions: human, CC50 in Calu-3 cells
SARS-CoV-2 M^pro [8] = target: T1, SARS-CoV-2 M^pro; type: binding; conditions: native mass spectrometry, covalent adduct
Cathepsin L = Cathepsin L (Homo sapiens (Human), UniProt P07711); conditions: cited from earlier work
Cathepsin B = Cathepsin B (Homo sapiens (Human), UniProt P07858); conditions: cited from earlier work
[9] = read-out: IC50 against SARS-CoV-2 M^pro
[10] = read-out: Additional off targets: Cathepsin B IC50

Chain of Cathepsin L (P07711 114-333 limits assumed): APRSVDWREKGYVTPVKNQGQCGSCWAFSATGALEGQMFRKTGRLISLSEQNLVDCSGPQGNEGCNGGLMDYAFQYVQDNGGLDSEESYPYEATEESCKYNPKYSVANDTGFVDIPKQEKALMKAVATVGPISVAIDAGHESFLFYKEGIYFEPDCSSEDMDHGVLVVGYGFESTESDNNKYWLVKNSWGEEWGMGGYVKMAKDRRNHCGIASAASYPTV

Compound	IC50 (SARS-CoV-2 M^pro [1]; [9]) [µM]	CC50 at 5 days (in vitro [6]) [µM]	CC50 at 5 days (in vitro [7]) [µM]	further results
C[C@@H](CCc1ccccc1)NC(=O)[C@@H](c1cccnc1)N(C(=O)C(Cl)Cl)c1ccc(-c2ccccc2)cc1 (single isomer, unassigned) [Jun9-90-4R]	0.46	> 100		EC50 (SARS-CoV-2 [2]): 1.1 µM; kinact/KI (SARS-CoV-2 M^pro [3]): 867 M⁻¹ s⁻¹; EC50 (SARS-CoV-2 M^pro [4]): 1.57 µM; EC50 (SARS-CoV-2 [5]): 1.43 µM
C[C@H](NC(=O)[C@H](c1cccnc1)N(C(=O)CCl)c1ccc(-n2cccc2)cc1)c1ccccc1 (stereo in doubt) [Jun9-57-3S]	1.13	< 11	< 2	
O=C(NC1CCCCC1)C(c1cccnc1)N(C(=O)CCl)c1ccc(-c2ccccc2)cc1 (stereo not drawn) [Jun9-55-2, N-([1,1′-biphenyl]-4-yl)-2-chloro-N-(2-(cyclohexylamino)-2-oxo-1-(pyridin-3-yl)ethyl)acetamide]		< 11	< 2	
O=C(NC1CC1)C(c1cccnc1)N(C(=O)CCl)c1ccc(-c2ccccc2)cc1 (stereo not drawn) [Jun9-57-2, N-([1,1′-biphenyl]-4-yl)-2-chloro-N-(2-(cyclopropylamino)-2-oxo-1-(pyridin-3-yl)ethyl)acetamide]		< 11	< 2	
C[C@H](NC(=O)[C@@H](c1cccnc1)N(C(=O)CCl)c1ccc(-n2cccc2)cc1)c1ccccc1 [Jun9-57-3R, N-(4-(1H-pyrrol-1-yl)phenyl)-2-chloro-N-((R)-2-oxo-2-(((S)-1-phenylethyl)amino)-1-(pyridin-3-yl)ethyl)acetamide]	0.05	< 11	< 2	
C[C@H](NC(=O)C(c1cnccn1)N(C(=O)CCl)c1ccc(-c2ccccc2)cc1)c1ccccc1 (stereo partly drawn) [Jun9-59-1, 2-(N-{[1,1′-biphenyl]-4-yl}-2-chioroacetamido)-N-[(1S)-1-phenylethyl]-2-(pyrazin-2-yl)acetamide]		< 11	< 2	
CC#CC(=O)N(c1ccc(-c2ccccc2)cc1)C(C(=O)N[C@@H](C)c1ccccc1)c1cccnc1 (stereo partly drawn) [Jun9-62-1, N-([1,1′-hiphenyl]-4-yl)-N-(2-oxo-2-(((S)-1-phenylethyl)amino)-1-(pyridin-3-yl)ethyl)but-2-ynamide]	1.15	18	47.8	
C[C@H](NC(=O)[C@@H](c1cccnc1)N(C(=O)C(Br)Br)c1ccc(-c2ccccc2)cc1)c1ccccc1 [Jun9-89-2R]		8.94		IC50 (SARS-CoV-2 M^pro [1]; IC50 against SARS-CoV-2 M^pro): 0.08 µM; mass modification (mass shift) of M^pro adduct (SARS-CoV-2 M^pro [8]): 526 Da
C[C@H](NC(=O)[C@@H](c1cccnc1)N(C(=O)C(Cl)(Br)Br)c1ccc(-c2ccccc2)cc1)c1ccccc1 [Jun9-89-4R, N-([1,1′-biphenyl]-4-yl)-2,2-dibromo-2-chloro-N-((R)-2-oxo-2-(((S)-1-phenylethyl)amino)-1-(pyridin-3-yl)ethyl)acetamide]	0.05	8.41		mass modification (mass shift) of M^pro adduct (SARS-CoV-2 M^pro [8]): 481 Da and 561 Da
C[C@@H](OC(C)(C)C)[C@H](NC(=O)OCc1ccccc1)C(=O)N[C@@H](CC1CCCCC1)C(=O)N[C@H](C=O)C[C@@H]1CCNC1=O [MPI8]				IC50 (Cathepsin L; read-out: Cathepsin L IC50): 0.0012 µM; IC50 (Cathepsin L; read-out: IC50 cathepsin L (recent study)): 0.23 µM; IC50 (Cathepsin B; [10]): 0.23 µM; IC50 (Cathepsin B; read-out: IC50 cathepsin B (recent study)): 0.0012 µM
PF-00835231				IC50 (Cathepsin L; read-out: Cathepsin L IC50): 0.146 µM; IC50 (Cathepsin B; [10]): 1.3 µM
